Laboratory results taken from patent publication US20080004290A1, “Anti-Cancer Agents” (THE UNIVERSITY OF QUEENSLAND, priority 2003, published 2008).
Read-outs that look alike come from different tables or passages of the source.

Assays:
[1] = system: NFF, neonatal foreskin fibroblasts; experiment: Cell survival assay (clonogenic survival, SRB), normal cells; assay type: cell-based, human; settings: SRB
Description: (§1) The cytotoxicities of the compounds of the invention were determined by clonogenic survival of human cancer cells (MM96L, melanoma) and human normal cells (NFF, neonatal foreskin fibroblasts). Cells were incubated with the compounds at various concentrations of compound (0.01-10 μg/mL) for 24 hours, washed, and then grown for a further four days in the absence of hydroxamic acid before determining cell survival by cell count. The final readout involved staining with sulforhodamine B (SRB), a cost-effective method amenable to automation and high throughput analysis. At the technical level, “cell sensitivity” is often inferred from short term (1-2 day) observations such as apoptosis, which may not be a satisfactory model of clonogenic survival.
(§2) Cell Lines and Culture Medium. All cell lines used in this study have been described previously (Parsons et al., 1986; Todaro et al., 1980; Glenn et al., 2004). All cell lines were cultured in 10% heat-inactivated foetal calf serum (CSL, Australia) in RPMI 1640 medium supplemented with 100 U/mL penicillin, 100 μg/mL streptomycin, and 3 mM HEPES at 5% CO2, 99% humidity at 37° C. Primary human fibroblasts were obtained from neonatal foreskins and cultured in the above medium. Routine mycoplasma tests were performed using Hoechst stain^i and were always negative.
(§3) Cell Survival Assay. Cells were plated into 96-well microtitre plates at 5×10^3 cells/well, and allowed to adhere overnight. Test compounds were added to culture medium at the indicated concentrations, and plates incubated in the above conditions for 24 hours. Following this incubation period, compounds and media were removed, and replaced with fresh culture medium. Cells were then grown for a further 72 hours before assay using sulforhodamine B (SRB; Sigma, St. Louis, Mo.) as previously described. Briefly, the culture medium was removed from the 96-well microtitre plates and the plates washed twice with phosphate buffered saline (PBS), before the cells were fixed with methylated spirits for 15 minutes. The plates were then rinsed with tap water and the fixed cells stained with 50 μL/well of SRB solution (0.4% sulforhodamine B (w/v) in 1% (v/v) acetic acid) over a period of 1 hour. The SRB solution was then removed from the wells and the plates rapidly washed two times with 1% (v/v) acetic acid. Protein bound dye was then solubilised with the addition of 100 μL of 10 mM unbuffered Tris, and incubated for 15 min at 25° C. Plates were then read at 564 nm on a VERSA max tunable microplate reader (Molecular Devices, Sunnyvale, Calif.).

MM96L melanoma cells = experiment: Cell survival assay (clonogenic survival, SRB); assay type: cell-based, human; settings: for SI (Selectivity Index = IC50 (NFF)/IC50 (MM96L)): NFF vs MM96L
Description: as §1, §2, §3

[2] = Homo sapiens, Fibroblast, NFF normal fibroblasts, 24 h with compound, further 72 h growth, read-out: IC50 (uM) NFF
[3] = Homo sapiens, MM96L, MM96L melanoma, 24 h with compound, further 72 h growth, SRB, read-out: IC50 (uM) MM96L
[4] = Table 6, 24 hours with compound, further growth, read-out: IC50 (μM) NFF
[5] = Table 6, 24 hours with compound, further growth, SRB, read-out: IC50 (μM) MM96L
[6] = Table 6, IC50 (NFF)/IC50 (MM96L)
[7] = NFF normal fibroblasts, 24 h with compound, further 72 h growth, read-out: IC50 (uM) NFF
[8] = Homo sapiens, MM96L, most preferred compounds, exemplary examples, read-out: potency of IC50 against the MM96 melanoma cells
[9] = MM96L melanoma, 24 h with compound, further 72 h growth, SRB, read-out: IC50 (uM) MM96L
[10] = Table 8, 24 hours with compound, further growth, read-out: IC50 (μM) NFF
[11] = Table 8, 24 hours with compound, further growth, SRB, read-out: IC50 (μM) MM96
[12] = Table 8, IC50 (NFF)/IC50 (MM96L)
[13] = Homo sapiens, Fibroblast, 24 h, Table 6, 24 hours with compound, further growth, read-out: IC50 (μM) NFF
[14] = Homo sapiens, MM96L, 24 h, Table 6, 24 hours with compound, further growth, SRB, read-out: IC50 (μM) MM96L

In the case of `CN(C)c1ccc(C(=O)N[C@@H](CCCCCC(=O)NO)C(=O)NCc2ccccn2)cc1` [Example 127], the IC50 [1, 2] is reported as 33 ± 5 µM, the IC50 (MM96L melanoma cells; [3]) is reported as 3.6 ± 0.4 µM and the “SI (Selectivity Index = IC50 (NFF)/IC50 (MM96L))” value (MM96L melanoma cells) is reported as 9.1.

Compound `CN(C)c1ccc(C(=O)N[C@@H](CSCCCC(=O)NO)C(=O)NC2(Cc3ccccc3)CCCC2)cc1` [Example 87] has an IC50 [1, 4] of 4.2 ± 0.5 µM, an IC50 (MM96L melanoma cells; [5]) of 0.6 ± 0.1 µM and a Selectivity (MM96L melanoma cells; [6]) of 7.0.

With `O=C(/C=C/c1ccccc1)N[C@@H](CCCCCC(=O)NO)C(=O)NCc1ccccc1` [Example 137] the IC50 [1, 7] was 4.01 µM, the IC50 (MM96L melanoma cells; [8]) was at most 0.5 µM and the IC50 (MM96L melanoma cells; [9]) was 0.46 µM. For the same compound, the “SI (Selectivity Index = IC50 (NFF)/IC50 (MM96L))” value (MM96L melanoma cells) was 8.7.

For `O=C(CCCCC[C@H](NC(=O)c1ccc(C(F)(F)F)cc1)C(=O)Nc1cccc2cccnc12)NO` [Example 147], the IC50 [1, 2] was 0.696 µM, the IC50 (MM96L melanoma cells; [3]) was 0.258 µM and the “SI (Selectivity Index = IC50 (NFF)/IC50 (MM96L))” value (MM96L melanoma cells) was 2.7.

For `O=C(CCCCC[C@H](NC(=O)c1cc2ccccc2[nH]1)C(=O)NC1(Cc2ccccc2)CCCC1)NO` [Example 129], the IC50 [1, 2] was 1.6 ± 0.2 µM, the IC50 (MM96L melanoma cells; [3]) was 0.9 ± 0.2 µM and the “SI (Selectivity Index = IC50 (NFF)/IC50 (MM96L))” value (MM96L melanoma cells) was 1.7.

In the case of `CN(C)c1ccc(C(=O)N[C@@H](CSCCCC(=O)NO)C(=O)NCc2ccc(C(=O)NCCCCCCO)cc2)cc1` [Example 105], the IC50 [1, 10] is reported as 17 µM, the IC50 (MM96L melanoma cells; [11]) is reported as 4.26 µM and the Selectivity (MM96L melanoma cells; [12]) is reported as 4.0.

With `CN(C)c1ccc(NC(=O)[C@H](CCCCCC(=O)NO)NC(=O)c2ccc(C(F)(F)F)cc2)cc1` [Example 152] the IC50 [1, 2] was 0.404 µM, the IC50 (MM96L melanoma cells; [3]) was 0.222 µM and the “SI (Selectivity Index = IC50 (NFF)/IC50 (MM96L))” value (MM96L melanoma cells) was 1.8.

For `O=C(CCCCC[C@H](NC(=O)c1cc2ccccc2[nH]1)C(=O)NCc1ccccc1)NO` [Example 130], the IC50 [1, 7] was 1.26 µM, the IC50 (MM96L melanoma cells; [8]) was at most 0.5 µM and the IC50 (MM96L melanoma cells; [9]) was 0.252 µM. For the same compound, the “SI (Selectivity Index = IC50 (NFF)/IC50 (MM96L))” value (MM96L melanoma cells) was 5.0.

`CN(C)c1ccc(C(=O)N[C@@H](CSCCCC(=O)NO)C(=O)NCC2CCCCC2)cc1` [Example 88] gave an IC50 [1, 13] of 3.6 ± 0.2 µM, an IC50 (MM96L melanoma cells; [14]) of 0.51 ± 0.09 µM and a Selectivity (MM96L melanoma cells; [6]) of 7.1.

With `O=C(CCCSC[C@H](NC(=O)c1cccnc1)C(=O)NCc1ccccc1)NO` [Example 36] the IC50 ([1]; Table 5, 24 hours with compound, further growth, read-out: IC50 NFF) was over 100 µM, the IC50 (MM96L melanoma cells; Table 5, 24 hours with compound, further growth, SRB, read-out: IC50 MM96L) was 12.8 ± 0.8 µM and the Selectivity (MM96L melanoma cells; Table 5, Selectivity Index = IC50 (NFF)/IC50 (MM96L)) was over 8.

For `O=C(CCCCC[C@H](NC(=O)c1ccc(Br)cc1)C(=O)NCc1ccccn1)NO` [Example 157], the IC50 [1, 2] was 2.09 µM, the IC50 (MM96L melanoma cells; [3]) was 1.15 µM and the “SI (Selectivity Index = IC50 (NFF)/IC50 (MM96L))” value (MM96L melanoma cells) was 1.8.

Compound `CC(=O)c1cccc(NC(=O)[C@H](CSCCCC(=O)NO)NC(=O)c2ccc(N(C)C)cc2)c1` [Example 60] has an IC50 [1, 13] of 1.6 ± 0.08 µM, an IC50 (MM96L melanoma cells; [14]) of 0.55 ± 0.05 µM and a Selectivity (MM96L melanoma cells; [6]) of 2.9.

`CN(C)c1ccc(C(=O)N[C@@H](CSCCCC(=O)NO)C(=O)Nc2ccncc2)cc1` [Example 77] gave an IC50 [1, 13] of 7.2 ± 0.8 µM, an IC50 (MM96L melanoma cells; [14]) of 1.8 ± 0.2 µM and a Selectivity (MM96L melanoma cells; [6]) of 4.1.

Compound `CN(C)c1ccc(C(=O)N[C@@H](CSCCCC(=O)NO)C(=O)NCCc2ccccc2Br)cc1` [Example 84] has an IC50 [1, 4] of 3.3 ± 0.3 µM, an IC50 (MM96L melanoma cells; [5]) of 0.7 ± 0.2 µM and a Selectivity (MM96L melanoma cells; [6]) of 4.7.

Compound `CN(C)c1ccc(C(=O)N[C@@H](CSCCCC(=O)NO)C(=O)NCc2cccc3ccccc23)cc1` [Example 75] has an IC50 [1, 13] of 0.42 ± 0.05 µM, an IC50 (MM96L melanoma cells; [14]) of 0.2 ± 0.02 µM and a Selectivity (MM96L melanoma cells; [6]) of 2.1.

Compound `CN(C)c1ccc(C(=O)N[C@@H](CSCCCC(=O)NO)C(=O)NCc2ccccn2)cc1` [Example 82] has an IC50 [1, 13] of 6.5 ± 0.3 µM, an IC50 (MM96L melanoma cells; [14]) of 1.2 ± 0.1 µM and a Selectivity (MM96L melanoma cells; [6]) of 5.5.

With `O=C(CCCCC[C@H](NC(=O)c1cc2c(Br)cccc2[nH]1)C(=O)NCc1ccccc1)NO` [Example 165] the IC50 [1, 2] was 1.94 µM, the IC50 (MM96L melanoma cells; [3]) was 0.485 µM and the “SI (Selectivity Index = IC50 (NFF)/IC50 (MM96L))” value (MM96L melanoma cells) was 4.0.

For `CN(C)c1ccc(C(=O)N[C@@H](CSCCCC(=O)NO)C(=O)NCc2ccc(C(=O)NCCc3ccc(O)cc3)cc2)cc1` [Example 110], the IC50 [1, 10] was 16.1 µM, the IC50 (MM96L melanoma cells; [11]) was 2.98 µM and the Selectivity (MM96L melanoma cells; [12]) was 5.4.
